Results reported in PMC10979453, “Antioxidant and Angiotensin-Converting Enzyme Inhibitory Activity of Faba Bean-Derived Peptides After In Vitro Gastrointestinal Digestion: Insight into Their Mechanism of Action” (Journal of Agricultural and Food Chemistry, 2024).
Where two headings read alike, the source gives them in different places. Peptide text beside a SMILES is read from it.

Tests used:
[1] = DPPH free radical scavenging assay; settings: mean ± SD; tested at 0.1–10 mM
Protocol: (§1) For the DPPH, ABTS, and iron chelating assays, the peptides were first screened at a high dose (10 mM). […] The EC50 values were calculated using a four-parameter logistic curve regression, and Trolox was used as a positive control. For the ORAC assay, the results were expressed as μmol of Trolox equivalent per mM of peptides.

[2] = ABTS free radical scavenging assay; settings: for ABTS activity, times lower than Trolox: range over the named peptides
Protocol: as §1

[3] = Oxygen Radical Absorption Capacity (ORAC) assay; settings: for ORAC activity per mg of peptides: as given in the text; for ORAC activity, times higher than Trolox: on a molar basis, range over the named peptides
Protocol: 2,2-Diphenyl-1-picrylhydrazyl (DPPH), 2,2′-azinobis(3-ethylbenzothiazoline-6-sulfonic acid) (ABTS), Oxygen Radical Absorption Capacity (ORAC), and the iron chelating assays were performed following the methods of Orona-Tamayo, Valverde, Nieto-Rendón, and Paredes-López (2015),[17] Re, Pellegrini, Proteggente, Pannala, Yang, and Rice-Evans (1999),[18] Tomer, McLeman, Ohmine, Scherer, Murray, and O’Neill (2007),[19] and of Orona-Tamayo et al. (2015),[17] respectively, as described in Martineau-Côté, Achouri, Wanasundara et al. (2022).[16] For the DPPH, ABTS, and iron chelating assays, the peptides were first screened at a high dose (10 mM). Peptides with antioxidant activity were then tested at different concentrations (0.1–10 mM) to evaluate the dose–response effect. The results were expressed as the half-maximal effective concentration (EC50), which was defined as the required peptide concentration, leading to 50% scavenging or chelating activity. The EC50 values were calculated using a four-parameter logistic curve regression, and Trolox was used as a positive control. For the ORAC assay, the results were expressed as μmol of Trolox equivalent per mM of peptides.

[4] = molecular target: T1, Angiotensin-converting enzyme (ACE) from rabbit lung (Oryctolagus cuniculus, UniProt P12822); test: in vitro ACE inhibitory activity (HHL substrate); assay type: biochemical; settings: for IC50: mean ± SD; for inhibition at 10000 µM: peptide concentration 10 mM
T1 construct: Angiotensin-converting enzyme (ACE) from rabbit lung (A6778); purchased Sigma-Aldrich A6778; host or cells: rabbit lung (tissue-derived enzyme)
T1 sequence (P12822 34-1310): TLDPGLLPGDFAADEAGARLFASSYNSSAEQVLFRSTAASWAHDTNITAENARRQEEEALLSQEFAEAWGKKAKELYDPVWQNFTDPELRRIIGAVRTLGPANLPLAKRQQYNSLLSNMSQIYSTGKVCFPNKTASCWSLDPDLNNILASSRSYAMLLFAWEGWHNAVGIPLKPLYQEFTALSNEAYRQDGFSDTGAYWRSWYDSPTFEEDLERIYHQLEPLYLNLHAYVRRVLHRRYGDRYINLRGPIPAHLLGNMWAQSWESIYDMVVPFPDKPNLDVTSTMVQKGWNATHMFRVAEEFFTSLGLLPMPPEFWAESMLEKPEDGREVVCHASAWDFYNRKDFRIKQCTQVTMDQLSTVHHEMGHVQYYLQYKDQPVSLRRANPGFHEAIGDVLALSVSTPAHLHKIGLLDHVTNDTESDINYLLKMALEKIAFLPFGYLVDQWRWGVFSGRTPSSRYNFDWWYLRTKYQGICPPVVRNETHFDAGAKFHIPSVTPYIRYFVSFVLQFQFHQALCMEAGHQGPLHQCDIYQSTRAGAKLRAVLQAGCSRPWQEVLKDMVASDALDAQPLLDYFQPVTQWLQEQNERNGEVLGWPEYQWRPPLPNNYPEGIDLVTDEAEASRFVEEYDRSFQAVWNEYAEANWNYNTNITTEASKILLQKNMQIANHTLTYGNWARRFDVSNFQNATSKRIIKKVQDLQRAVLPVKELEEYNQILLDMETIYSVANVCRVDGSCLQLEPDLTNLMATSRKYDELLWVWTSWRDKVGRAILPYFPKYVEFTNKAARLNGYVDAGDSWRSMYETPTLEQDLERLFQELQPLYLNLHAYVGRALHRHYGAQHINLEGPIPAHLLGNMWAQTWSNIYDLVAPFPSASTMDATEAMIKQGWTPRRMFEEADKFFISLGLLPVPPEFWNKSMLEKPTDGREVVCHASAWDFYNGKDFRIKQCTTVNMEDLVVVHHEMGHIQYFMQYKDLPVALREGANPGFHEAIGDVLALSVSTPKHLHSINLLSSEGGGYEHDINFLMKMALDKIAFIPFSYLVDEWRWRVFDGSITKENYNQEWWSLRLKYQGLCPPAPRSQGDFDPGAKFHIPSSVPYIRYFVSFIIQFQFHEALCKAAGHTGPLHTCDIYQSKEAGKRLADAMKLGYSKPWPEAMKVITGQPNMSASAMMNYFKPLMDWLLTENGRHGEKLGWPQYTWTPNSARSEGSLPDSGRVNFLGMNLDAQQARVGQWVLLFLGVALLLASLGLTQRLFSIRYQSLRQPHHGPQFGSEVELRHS
Excerpt: Angiotensin-converting enzyme (ACE) from rabbit lung (A6778), N-hippuryl–His–Leu hydrate (HHL) (H1635), and captopril were purchased from Sigma-Aldrich (St. Louis, MO, USA).
ACE from rabbits was used for in vitro testing, since rabbit and human ACE are nearly homologous and their active sites are highly similar.[24]

[5] = molecular target: T1, Angiotensin-converting enzyme (ACE) from rabbit lung; test: ACE inhibition kinetics (Lineweaver-Burk and secondary plots); assay type: biochemical; settings: HHL 0.5–2 mM, read-out: inhibition constant (Ki)
Protocol: A kinetic study was performed following the procedure of Barbana et al. (2011)[23] to determine the inhibition pattern of four faba bean peptides with ACE inhibition activity (VIPTEPPH, VIPTEPPHA, VVIPTEPPHA, and VVIPTEPPH). The initial rate of reaction was measured with different HHL (0.5–2 mM) and peptides concentrations. Lineweaver–Burk double reciprocal plots were built to identify the inhibition pattern.
The ACE inhibition pattern of VIPTEPPH, VIPTEPPHA, VVIPTEPPHA, and VVIPTEPPH was assessed through kinetic experiments. The initial velocity of reaction was measured at different substrate (0.5–2 mM) and peptide concentrations, and Lineweaver–Burk double reciprocal plots were built to identify the inhibition pattern. […] The inhibitor binding site is, therefore, located outside the enzyme active site. The loss of ACE activity in the presence of peptides can, therefore, be explained by conformational changes caused by peptide binding rather than competition for the active site.
The inhibition constant (Ki) was calculated from secondary plots for each peptide. The secondary plots were constructed by plotting the Lineweaver–Burk curve slope against the peptide concentration. The Ki value was calculated from the negative intercept on the X-axis of the secondary plot. […] These Ki values are nearly identical to the IC50, confirming the noncompetitive inhibition pattern. The minor differences in the IC50 and Ki values can be explained by experimental imprecision.

[6] = free amino acids; cited from earlier work
[7] = read-out: ACE Inhibition (IC50 μM)
[8] = read-out: ACE Inhibition (IC50 μg/mL) (converted)

Compound	IC50 [4, 7] [µM]	IC50 [4, 8] [µM]	inhibition at 10000 µM [4] [%]	Ki [5] [µM]	ORAC activity [6] [μMol TE eq/mM]	further results
TETWNPNHPEL [synthesized faba bean-derived peptide, parent protein legumin B]						EC50 [1]: 2100 ± 100 µM; EC50 ([2]; mean ± SD, tested at 0.1–10 mM): 500 ± 200 µM; ABTS activity, times lower than Trolox [2]: 8 to 66 times; ORAC activity per mg of peptides [3]: 1.9 μMol Trolox eq/mg; ORAC activity, times higher than Trolox [3]: 2.5 to 2.8 times
N[C@@H](Cc1c[nH]cn1)C(=O)O [histidine]					78	
TETWNPNHPE [synthesized faba bean-derived peptide, parent protein legumin B]						ABTS activity, times lower than Trolox [2]: 8 to 66 times; ORAC activity ([3]; as given in the abstract): 2.84 ± 0.08 mM Trolox equivalent/mM; ORAC activity per mg of peptides [3]: 2.3 μMol Trolox eq/mg; ORAC activity, times higher than Trolox [3]: 2.5 to 2.8 times
N[C@@H](Cc1c[nH]c2ccccc12)C(=O)O [tryptophan]					2790	
N[C@@H](Cc1ccc(O)cc1)C(=O)O [tyrosine]					1020	

More lines, main results first:

IC50 [4, 7] [µM]	IC50 [4, 8] [µM]	inhibition at 10000 µM [4] [%]	Ki [5] [µM]	Compound	ORAC activity [6] [μMol TE eq/mM]	further results
43 ± 1	43.5	100	45	CC[C@H](C)[C@H](NC(=O)[C@@H](NC(=O)[C@@H](N)C(C)C)C(C)C)C(=O)N1CCC[C@H]1C(=O)N[C@H](C(=O)N[C@@H](CCC(=O)O)C(=O)N1CCC[C@H]1C(=O)N1CCC[C@H]1C(=O)N[C@@H](Cc1c[nH]cn1)C(=O)O)[C@@H](C)O [VVIPTEPPH] (H-VVIPTEPPH-OH)		
50 ± 5	50	100	54	CC[C@H](C)[C@H](NC(=O)[C@@H](NC(=O)[C@@H](N)C(C)C)C(C)C)C(=O)N1CCC[C@H]1C(=O)N[C@H](C(=O)N[C@@H](CCC(=O)O)C(=O)N1CCC[C@H]1C(=O)N1CCC[C@H]1C(=O)N[C@@H](Cc1c[nH]cn1)C(=O)N[C@@H](C)C(=O)O)[C@@H](C)O [VVIPTEPPHA] (H-VVIPTEPPHA-OH)		
123 ± 5	123	100	107	CC[C@H](C)[C@H](NC(=O)[C@@H](N)C(C)C)C(=O)N1CCC[C@H]1C(=O)N[C@H](C(=O)N[C@@H](CCC(=O)O)C(=O)N1CCC[C@H]1C(=O)N1CCC[C@H]1C(=O)N[C@@H](Cc1c[nH]cn1)C(=O)N[C@@H](C)C(=O)O)[C@@H](C)O [VIPTEPPHA] (H-VIPTEPPHA-OH)		
90 ± 10	91.1	100	87	CC[C@H](C)[C@H](NC(=O)[C@@H](N)C(C)C)C(=O)N1CCC[C@H]1C(=O)N[C@H](C(=O)N[C@@H](CCC(=O)O)C(=O)N1CCC[C@H]1C(=O)N1CCC[C@H]1C(=O)N[C@@H](Cc1c[nH]cn1)C(=O)O)[C@@H](C)O [VIPTEPPH] (H-VIPTEPPH-OH)		
